Source: US20160340334A1, “METHOD FOR ISOLATION OF ALKALOIDS AND AMINO ACIDS, AND CO[…] ALKALOIDS AND AMINO ACIDS” (priority 2015, published 2016)

How the values were obtained:
migraine = conditions: tryptophan administered in the form of 5-HTP; cited from earlier work
[1] = nicotine after extraction (Example 1); clinical studies
[2] = test system: models of Parkinson's disease; conditions: intermittent nicotine treatment; cited from earlier work

| Compound | aborting or significantly mitigating pain after onset of a migraine (migraine) | effect in migraine prevention (migraine) | side effects on use for treatment [1] | reduction of medication-induced dyskinesias [2] [%] |
| --- | --- | --- | --- | --- |
| N[C@@H](Cc1c[nH]c2ccc(O)cc12)C(=O)O [5-HTP, 5-Hydroxytryptophan] | ineffective | only moderate effects | – | – |
| CN1CCCC1c1cccnc1 (stereo not shown) [nicotine] | – | – | without side effects such as tachyphylaxis | ≤ 50 |
